{
  "source": "patent US7662864B2",
  "about": "“Solution polymerization processes to prepare a polymer that degrades to release a physiologically active agent” (Rutgers, The State University of New Jersey, priority 2003, dated 2010)",
  "key": {"[1]": {"test_system": "chronically-inflamed tissue", "conditions": "cited from earlier work"}, "Rat": {"test_system": "Rat", "conditions": "in vivo; cited from earlier work"}, "[2]": {"conditions": "cited from earlier work"}, "[3]": {"conditions": "cited from earlier work; for Plasma Levels (Anti-Inflammatory Effectiveness): Clinical Use"}, "[4]": {"test": "Plasma diflunisal in rats after subcutaneous polydiflunisal microspheres", "type": "in vivo", "conditions": "single oral dose", "text": "Processes for making nanoparticle formulations are also known in the art, and need not be fully described in this patent. The surface eroding property of polymers such as polydiflunisal makes for solid, non-porous particles, e.g. nano- and micro-spheres, useful for sustained drug delivery, and their release duration may be controlled by varying particle diameter, e.g. larger microparticles biodegrade more slowly than smaller ones. Nano- and microparticles for pharmaceutical formulations may be designed to deliver an agent(s) or compound(s) incorporated into the polymer backbone and optionally an agent(s) blended, appended to, or dispersed in the polymer. […] Microparticle formulations of about 1, 2, 5, 7.5, 10, 25, 50 to about 10, 15, 30, 50, 75, 100, 250 μm are suitable for use in a pharmaceutical, veterinary or other type of formulations. Similarly, nanoparticle formulations may be administered for various applications, having a particle size about 1, 2, 5, 10 to about 15, 20, 30, 50, 100, 250, 500 nm, or various ranges between any two of these values. […] While the injection of a drug or biological agent carried by a polymer of the invention, e.g. a polyNSAID, may be expected to generate significant drug, e.g. NSAID, concentrations in tissues near the injection site, their systemic levels in most cases will remain less than about […], which are far below therapeutic levels. […]"}},
  "note": "Read-outs that look alike come from different tables or passages of the source.",
  "data": [
    {"smiles": "CN1CC[C@]23c4c5ccc(O)c4O[C@H]2[C@@H](O)C=C[C@H]3[C@H]1C5", "note": "[morphine]", "values": [
      {"measurement": "pain relief", "setting": "[1]; 1 mg injected into chronically-inflamed gum tissue", "value": "profound pain relief"},
      {"measurement": "pain relief", "setting": "[1]; 3 mg intra-articular injection in RA patients", "value": "pain relief similar to that of 4 mg dexamethasone"}
    ]},
    {"smiles": "O=C(O)CCCCCCCCC(=O)O", "note": "[Sebacic Acid]", "values": [
      {"measurement": "Rat Oral LD50", "setting": "Rat", "value": "14,470 mg/kg"}
    ]},
    {"smiles": "O=C(O)c1ccccc1O", "note": "[Salicylic Acid]", "values": [
      {"measurement": "Water Solubility", "setting": "[2]", "value": "High"},
      {"measurement": "Plasma Levels (Anti-Inflammatory Effectiveness)", "setting": "[3]", "value": "150 to 300", "unit": "µg/mL"}
    ]},
    {"smiles": "O=C(O)c1cc(-c2ccc(F)cc2F)ccc1O", "note": "[Diflunisal, 5-(2,4-difluorophenyl)-salicylic acid]", "values": [
      {"measurement": "course of drug level", "setting": "[4]", "value": "declined rapidly"},
      {"measurement": "Water Solubility", "setting": "[2]", "value": "Very Low"},
      {"measurement": "Plasma Levels (Anti-Inflammatory Effectiveness)", "setting": "[3]", "value": "50 to 190", "unit": "µg/mL"},
      {"measurement": "No. Metabolites", "setting": "[3]; in vivo", "value": 2},
      {"measurement": "Plasma half-life", "setting": "[3]; in vivo", "value": "8 to 12", "unit": "h"},
      {"measurement": "Where Metabolized", "setting": "[3]; in vivo", "value": "Liver, Intestine"}
    ]}
  ]
}
